# Measurements from the supplement of paper PMC11451515.
# Test system: NOMO1
# Assay: cell viability relative to DMSO control; higher = less cytotoxic
# Conditions: 48 h
# Outline: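 Viability was expressed as a per-plate percentage of DMSO wells, with cell-free wells as background. Leukemia cells (NOMO1 or SEM at 500 cells/well, P12-Ichikawa at 1000 cells/well) were adapted for at least four passages in each medium and seeded in 1536-well plates (5 μl). Library compounds in DMSO were pin-dosed over an 11-point threefold series from 47 μM to 0.79 nM, and CellTiter-Glo One luminescence was read after 48 h at 37°C.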
# [1] = HPLM + 10% dialyzed FBS, 0.000781 µM
# [2] = HPLM + 10% dialyzed FBS, 0.00234 µM
# [3] = HPLM + 10% dialyzed FBS, 0.00702 µM
# [4] = HPLM + 10% dialyzed FBS, 0.0211 µM
# [5] = HPLM + 10% dialyzed FBS, 0.0632 µM
# [6] = HPLM + 10% dialyzed FBS, 0.19 µM
# [7] = HPLM + 10% dialyzed FBS, 0.569 µM
# [8] = HPLM + 10% dialyzed FBS, 1.71 µM
# [9] = HPLM + 10% dialyzed FBS, 5.12 µM
# [10] = HPLM + 10% dialyzed FBS, 15.4 µM
# [11] = HPLM + 10% dialyzed FBS, 46.1 µM
# [12] = RPMI 5 mM glucose + 10% FBS, 0.000781 µM
# [13] = RPMI 5 mM glucose + 10% FBS, 0.00234 µM
# [14] = RPMI 5 mM glucose + 10% FBS, 0.00702 µM
# [15] = RPMI 5 mM glucose + 10% FBS, 0.0211 µM
# [16] = RPMI 5 mM glucose + 10% FBS, 0.0632 µM
# [17] = RPMI 5 mM glucose + 10% FBS, 0.19 µM
# [18] = RPMI 5 mM glucose + 10% FBS, 0.569 µM
# [19] = RPMI 5 mM glucose + 10% FBS, 1.71 µM
# [20] = RPMI 5 mM glucose + 10% FBS, 5.12 µM
# [21] = RPMI 5 mM glucose + 10% FBS, 15.4 µM
# [22] = RPMI 5 mM glucose + 10% FBS, 46.1 µM
# [23] = RPMI 5 mM glucose + 10% dialyzed FBS, 0.000781 µM
# [24] = RPMI 5 mM glucose + 10% dialyzed FBS, 0.00234 µM
# [25] = RPMI 5 mM glucose + 10% dialyzed FBS, 0.00702 µM
# [26] = RPMI 5 mM glucose + 10% dialyzed FBS, 0.0211 µM
# [27] = RPMI 5 mM glucose + 10% dialyzed FBS, 0.0632 µM
# [28] = RPMI 5 mM glucose + 10% dialyzed FBS, 0.19 µM
# [29] = RPMI 5 mM glucose + 10% dialyzed FBS, 0.569 µM
# [30] = RPMI 5 mM glucose + 10% dialyzed FBS, 1.71 µM
# [31] = RPMI 5 mM glucose + 10% dialyzed FBS, 5.12 µM
# [32] = RPMI 5 mM glucose + 10% dialyzed FBS, 15.4 µM
# [33] = RPMI 5 mM glucose + 10% dialyzed FBS, 46.1 µM
Structure (SMILES),cell viability [1] [%],cell viability [2] [%],cell viability [3] [%],cell viability [4] [%],cell viability [5] [%],cell viability [6] [%],cell viability [7] [%],cell viability [8] [%],cell viability [9] [%],cell viability [10] [%],cell viability [11] [%],cell viability [12] [%],cell viability [13] [%],cell viability [14] [%],cell viability [15] [%],cell viability [16] [%],cell viability [17] [%],cell viability [18] [%],cell viability [19] [%],cell viability [20] [%],cell viability [21] [%],cell viability [22] [%],cell viability [23] [%],cell viability [24] [%],cell viability [25] [%],cell viability [26] [%],cell viability [27] [%],cell viability [28] [%],cell viability [29] [%],cell viability [30] [%],cell viability [31] [%],cell viability [32] [%],cell viability [33] [%]
CC(C)n1cnc2c(NCCc3ccc(O)cc3)nc(-c3csc4ccccc34)nc21,108,98,124,99.4,121,116,144,139,51.1,33.8,13.4,115,114,104,113,127,114,119,113,119,57.1,24.9,114,116,115,121,124,116,125,140,130,57.1,29.1
CCOC(=O)N[C@@H]1CC[C@@H]2[C@@H](C1)C[C@H]1C(=O)O[C@H](C)[C@H]1[C@H]2/C=C/c1ccc(-c2cccc(F)c2)cn1,–,–,–,–,–,–,–,–,–,–,–,114,115,122,128,127,121,120,131,127,142,79,125,112,122,109,115,118,133,129,131,125,76.8
COc1cc2ncnc(Nc3cccc(Cl)c3)c2cc1OC,83,93.2,86.9,80.6,69.7,59,57,41.4,39.2,36,3.63,95.7,101,99.3,96.6,102,85.9,82.1,57.7,48.7,39.6,34.4,100,95,101,101,76.2,75.1,72.9,47.7,45.8,38.9,37.5
